Paper PMC8072890, “Aminoalkylamides of Eremomycin Exhibit an Improved Antibacterial Activity” (Pharmaceuticals, 2021)

Legend:
[1] = tested on: S. aureus (strain 10, clinical isolate); experiment: Mouse staphylococcal sepsis model, single IV administration; format: in vivo, mice (SHK colony); conditions: for Survival: single IV, 30 min after infection, n = 10
Method: A comparative study of the efficacy of eremomycin N-(2-((2-fluorobenzyl)amino)ethyl)amide (4e) and vancomycin was carried out in a mice staphylococcal sepsis model. Healthy female mice of the SHK colony weighing 20–22 g after two-week quarantine were randomized into groups (n = 10) and received S. aureus as the infectious agent (strain 10, clinical isolate, adapted for growth in vivo by five-fold passaging in mice). In the experiment, female mice of the SHK colony weighing 20–22 g were used. S. aureus (strain 10, clinical isolate), adapted for growth in vivo by five-fold passaging in mice, was used as the infectious agent. Initially, the lethal dose (LD100) of staphylococcus was determined for this mouse line using the intravenous infection route. The mice deaths were counted daily for 10 days. Thus, the lethal dose (LD100) was defined as 8 × 10^8 CFU/mouse. Afterwards, the mice were seated in cages of 10 heads and were infected intravenously with S. aureus at a lethal dose, and the efficacy of the tested drugs was determined by the ED50 value (i.e., the dose at which 50% of the experimental animals survive). Then, 30 min after infection, the mice were injected intravenously with eremomycin N-(2-((2-fluorobenzyl)amino)ethyl)amide (4e) at single doses from 0.1 to 2.5 mg/kg. or vancomycin at doses from 2.5 to 7.5 mg/kg. As a control dose, a group of untreated animals infected with a lethal dose of S. aureus was present in the experiment. The determination of ED50 of the tested compounds was carried out in one experiment under a single control using the Behrens method.

S. pneumoniae ATCC 6305 = experiment: MIC, broth dilution micromethod (CLSI); format: cell-based; conditions: sensitive strain, modal values (or range) of 3–5 independent tests
Text: (§1) The antimicrobial activity of semisynthetic derivatives of eremomycin 4a–q was studied in comparison with vancomycin on a wide panel of Gram-positive bacteria sensitive (Staphylococcus aureus ATCC 29213, S. aureus R-2, S. haemoliticus 602, S. pneumoniae ATCC 6305, Enteroccus faecium 4, and E. faecalis 559) and resistant to vancomycin (S. aureus 3797, S.aureus 3798, E. faecium 2, E. faecium 3576, E. faecalis 9, E. faecalis 583, and E. gallinarum BΠ 4147), information about the strains given in Table S3. The minimum microbial inhibitory concentration (MIC) for the test compounds was determined by the broth dilution micromethod according to CLSI guidelines, and vancomycin and a standard strain S. aureus ATCC 29213 used as controls (Figure 2 and Tables S4 and S5).
(§2) Table S4. Antibacterial activity of vancomycin and derivatives 4a–q against sensitive Gram-positive bacteria.
(§3) Strain/MIC (Minimum inhibitory concentration, μg/ml)*
(§4) Compound m n R S.aureus АТСС S.aureus R-2 S.haemoliticus S.pneumoniae АТСС E. faecium 4 E. faecalis 559
(§5) *MICs are presented as modal values for 3–5 independently replicated MIC tests for each strain and for the antibiotics. In the range of the
(§6) obtained MIC values, the obtained modal values are highlighted in bold.

E. faecalis 559 = format: cell-based; conditions: sensitive strain; broth dilution micromethod, CLSI; modal values (or range) of 3–5 independent tests
Text: as §1, §2, §3, §4, §5, §6

S. haemoliticus 602 = format: cell-based; conditions: sensitive strain; broth dilution micromethod, CLSI; modal values (or range) of 3–5 independent tests
Text: as §1, §2, §3, §4, §5, §6

[2] = tested on: Staphylococcus aureus ATCC 29213; format: cell-based; conditions: vancomycin-sensitive control strain; broth dilution micromethod, CLSI; modal values (or range) of 3–5 independent tests
Text: as §1, §2, §3, §4, §5, §6

S. aureus R-2 = format: cell-based; conditions: sensitive strain; broth dilution micromethod, CLSI; modal values (or range) of 3–5 independent tests
Text: as §1, §2, §3, §4, §5, §6

E. faecium 4 = format: cell-based; conditions: sensitive strain; broth dilution micromethod, CLSI; modal values (or range) of 3–5 independent tests
Text: as §1, §2, §3, §4, §5, §6

E. faecium 3576 = format: cell-based; conditions: strain resistant to vancomycin; broth dilution micromethod, CLSI; modal values (or range) of 3–5 independent tests
Text: as §1
(§7) Table S5. Antibacterial activity of vancomycin and derivatives 4a–q against resistant Gram-positive bacteria.
(§8) Strain/MIC (minimum inhibitory concentration; μg/ml)
(§9) Compound m n R S.aureus 3797 S.aureus 3798 E. faecium 2 E. faecium 3576 E. faecalis 9 E. faecalis 583 E. gallinarum
(§10) *MICs are presented as modal values for 3–5 independently replicate MIC tests for each strain and for the antibiotics. In the range of the obtained MIC
(§11) values, the obtained modal values are highlighted in bold.

E. gallinarum BΠ 4147 = format: cell-based; conditions: strain resistant to vancomycin; broth dilution micromethod, CLSI; modal values (or range) of 3–5 independent tests
Text: as §1, §7, §8, §9, §10, §11

S. aureus 3797 = format: cell-based; conditions: strain resistant to vancomycin; broth dilution micromethod, CLSI; modal values (or range) of 3–5 independent tests
Text: as §1, §7, §8, §9, §10, §11

E. faecalis 9 = format: cell-based; conditions: strain resistant to vancomycin; broth dilution micromethod, CLSI; modal values (or range) of 3–5 independent tests
Text: as §1, §7, §8, §9, §10, §11

E. faecalis 583 = format: cell-based; conditions: strain resistant to vancomycin; broth dilution micromethod, CLSI; modal values (or range) of 3–5 independent tests
Text: as §1, §7, §8, §9, §10, §11

E. faecium 2 = format: cell-based; conditions: strain resistant to vancomycin; broth dilution micromethod, CLSI; modal values (or range) of 3–5 independent tests
Text: as §1, §7, §8, §9, §10, §11

S.aureus 3798 = format: cell-based; conditions: strain resistant to vancomycin; broth dilution micromethod, CLSI; modal values (or range) of 3–5 independent tests
Text: as §1, §7, §8, §9, §10, §11

Row | Substance | Survival ([1]; dose 0.5 mg/kg) [%] | Survival ([1]; dose 1.5 mg/kg) [%] | Survival ([1]; dose 2.5 mg/kg) [%] | Survival ([1]; dose 3.5 mg/kg) [%] | Survival ([1]; dose 4.5 mg/kg) [%] | Survival ([1]; dose 5.5 mg/kg) [%] | ED50 ([1]; mice infected IV with lethal dose of S. aureus (8 × 10^8 CFU/mouse), single IV dose 30 min after infection, n = 10 per group, observed 14 days, Behrens method) [mg/kg] | MIC S.pneumoniae ATCC 6305 (S. pneumoniae ATCC 6305) [µg/mL] | MIC E. faecalis 559 (E. faecalis 559) [µg/mL] | MIC S.haemoliticus 602 (S. haemoliticus 602) [µg/mL] | MIC S.aureus ATCC 29213 [2] [µg/mL] | MIC S.aureus R-2 (S. aureus R-2) [µg/mL] | MIC E. faecium 4 (E. faecium 4) [µg/mL] | MIC E. faecium 3576 (E. faecium 3576) [µg/mL] | MIC E. gallinarum ВП 4147 (E. gallinarum BΠ 4147) [µg/mL] | MIC S.aureus 3797 (S. aureus 3797) [µg/mL] | MIC E. faecalis 9 (E. faecalis 9) [µg/mL] | MIC E. faecalis 583 (E. faecalis 583) [µg/mL] | MIC E. faecium 2 (E. faecium 2) [µg/mL] | MIC S.aureus 3798 (S.aureus 3798) [µg/mL]
1 | Eremomycin | 20 | 40 | 80 | 80 | 100 | 100 | 1.8 | – | – | – | – | – | – | – | – | – | – | – | – | –
2 | Eremomycin N-(2-((2,3,4,5,6-pentafluorobenzyl)amino)ethyl)amide [4p] | – | – | – | – | – | – | – | 0.01 | 1 | 0.25 to 0.5 | 0.25 | 0.25 | 1 | 4 | 2 | 1 to 2 | 0.25 | 1 | 1 | 4
3 | Eremomycin N-(2-((2,4-dichlorobenzyl)amino)ethyl)amide [4n] | – | – | – | – | – | – | – | 0.03 to 0.06 | 1 | 0.25 | 0.5 | 0.25 to 0.5 | 1 | 2 | 2 | 1 | 0.25 | 2 | 2 | 2
4 | Eremomycin N-(2-((2,6-difluorobenzyl)amino)ethyl)amide [4j] | – | – | – | – | – | – | – | 0.03 | 0.25 | 0.125 | 0.03 to 0.06 | 0.06 | 0.25 to 0.5 | 1 | 1 | 0.5 | 0.03 | 0.5 | 0.5 to 1 | 1
5 | Eremomycin N-(2-((2-chloro-4-fluorobenzyl)amino)ethyl)amide [4l] | – | – | – | – | – | – | – | 0.03 to 0.06 | 1 | 0.125 | 0.125 | 0.25 | 0.25 | 2 | 1 | 2 | 0.25 | 1 | 1 | 1
6 | Eremomycin N-(2-((2-chloro-6-fluorobenzyl)ethyl)amide [4m] | – | – | – | – | – | – | – | 0.06 | 0.5 to 1 | 0.125 | 0.25 | 0.125 to 0.25 | 0.5 | 2 | 2 | 2 | 0.25 to 0.5 | 1 | 1 | 2
7 | Eremomycin N-(2-((2-fluorobenzyl)amino)propyl)amide [4f] | – | – | – | – | – | – | – | 0.03 | 0.25 to 0.5 | 0.25 to 0.5 | 0.125 | 0.03 | 0.25 | 1 | 0.5 | 0.5 | 0.06 | 1 | 1 | 2
8 | Eremomycin N-(2-((3,4-dichlorobenzyl)amino)ethyl)amide [4o] | – | – | – | – | – | – | – | 0.5 | 2 | 0.5 | 1 | 1 | 1 | 2 | 2 | 2 | 0.25 to 0.5 | 2 | 2 | 1 to 2
9 | Eremomycin N-(2-((3,5-difluorobenzyl)amino)ethyl)amide [4k] | – | – | – | – | – | – | – | 0.01 | 0.5 | 0.125 | 0.25 | 0.125 to 0.25 | 0.5 | 1 | 1 | 0.5 | 0.06 | 1 | 1 | 1
10 | Eremomycin N-(2-((3-fluorobenzyl)amino)ethyl)amide [4g] | – | – | – | – | – | – | – | 0.01 | 0.25 to 0.5 | 0.5 | 0.03 | 0.06 | 0.25 | 1 | 1 | 1 | 0.03 | 0.5 to 1 | 0.5 | 2
11 | Eremomycin N-(2-((4-chlorobenzyl)amino)ethyl)amide [4i] | – | – | – | – | – | – | – | 00.03 | 0.5 | 0.25 | 0.125 to 0.25 | 0.25 | 0.25 | 1 | 0.5 | 0.25 to 0.5 | 0.06 | 0.5 to 1 | 0.5 | 1
